Results: article PMC9177597, “Structural basis of substrate recognition and translocation by human very long-chain fatty acid transporter ABCD1” (Nature Communications, 2022)

Key:
chABCD1 (chimeric ABCD1) [1] = molecular target: T1, chABCD1 (chimeric ABCD1) (Homo sapiens, UniProt P33897, T693M); experiment: substrate-stimulated ATPase assay (colorimetric Pi release); assay type: biochemical; conditions: 2 mM ATP, 2 mM MgCl2, LMNG + CHS, pH 7.5, 37 °C, varying C22:0-CoA
T1 construct: single polypeptide: N-terminal FLAG tag, PMP-4 residues 1-65 replacing human ABCD1 residues 1-63, then human ABCD1 64-745; HEK293F; homodimer; LMNG/CHS for assays, digitonin for cryo-EM; with PMP-4 (peroxisomal membrane protein related, ABCD1 homolog, Caenorhabditis elegans; N-terminal segment fused to the target chain)
T1 sequence (P33897 64-745 T693M): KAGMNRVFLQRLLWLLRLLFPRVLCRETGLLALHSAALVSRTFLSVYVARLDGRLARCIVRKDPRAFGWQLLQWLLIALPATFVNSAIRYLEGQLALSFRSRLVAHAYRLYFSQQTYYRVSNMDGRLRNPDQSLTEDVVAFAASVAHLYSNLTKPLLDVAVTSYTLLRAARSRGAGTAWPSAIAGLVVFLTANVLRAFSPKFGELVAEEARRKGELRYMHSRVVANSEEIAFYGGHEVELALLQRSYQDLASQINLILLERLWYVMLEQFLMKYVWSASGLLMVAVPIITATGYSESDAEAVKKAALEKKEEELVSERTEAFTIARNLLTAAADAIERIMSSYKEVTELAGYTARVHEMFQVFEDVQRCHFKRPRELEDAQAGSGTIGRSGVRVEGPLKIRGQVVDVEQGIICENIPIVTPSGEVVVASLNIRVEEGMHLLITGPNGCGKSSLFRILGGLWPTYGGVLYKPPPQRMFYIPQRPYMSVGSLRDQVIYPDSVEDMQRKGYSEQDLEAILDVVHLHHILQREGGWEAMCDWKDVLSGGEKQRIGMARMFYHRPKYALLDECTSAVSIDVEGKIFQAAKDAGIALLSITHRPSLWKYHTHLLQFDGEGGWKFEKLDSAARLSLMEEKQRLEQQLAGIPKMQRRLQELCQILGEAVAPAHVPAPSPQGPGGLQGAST

chABCD1 (chimeric ABCD1) [2] = molecular target: T2, chABCD1 (chimeric ABCD1) (Homo sapiens, UniProt P33897, DEL694-745); experiment: as above; assay type: biochemical
T2 construct: single polypeptide: N-terminal FLAG tag, PMP-4 residues 1-65 replacing human ABCD1 residues 1-63, then human ABCD1 64-745; HEK293F; homodimer; LMNG/CHS for assays, digitonin for cryo-EM; with PMP-4 (peroxisomal membrane protein related, ABCD1 homolog, Caenorhabditis elegans; N-terminal segment fused to the target chain)
T2 sequence (P33897 64-693): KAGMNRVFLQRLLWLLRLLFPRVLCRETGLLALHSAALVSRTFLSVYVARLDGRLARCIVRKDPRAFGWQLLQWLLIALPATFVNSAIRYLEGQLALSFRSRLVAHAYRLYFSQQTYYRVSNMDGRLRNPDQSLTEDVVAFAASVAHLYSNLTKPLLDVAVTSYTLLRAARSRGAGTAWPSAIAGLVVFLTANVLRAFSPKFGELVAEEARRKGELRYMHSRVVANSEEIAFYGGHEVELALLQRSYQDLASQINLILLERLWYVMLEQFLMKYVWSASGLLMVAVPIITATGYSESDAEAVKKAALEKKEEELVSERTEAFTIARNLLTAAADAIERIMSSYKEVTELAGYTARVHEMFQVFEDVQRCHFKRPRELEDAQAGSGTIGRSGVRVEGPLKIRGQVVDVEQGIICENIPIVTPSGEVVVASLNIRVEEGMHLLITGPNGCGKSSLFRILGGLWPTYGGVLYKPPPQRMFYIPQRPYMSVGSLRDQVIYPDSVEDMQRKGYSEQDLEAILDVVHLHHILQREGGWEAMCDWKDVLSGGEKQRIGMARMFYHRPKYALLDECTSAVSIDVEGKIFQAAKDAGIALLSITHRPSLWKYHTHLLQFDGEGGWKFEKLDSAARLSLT

`CCCCCCCCCCCCCCCCCCCCCC(=O)SCCNC(=O)CCNC(=O)[C@H](O)C(C)(C)COP(=O)(O)OP(=O)(O)OC[C@H]1O[C@@H](n2cnc3c(N)ncnc32)[C@H](O)[C@@H]1OP(=O)(O)O` [C22:0-CoA] was tested, and the ATPase activity (chABCD1 (chimeric ABCD1) [1]) was “ATPase activity assays of T693M mutant, which showed an almost non-detectable activity” and the EC50 (chABCD1 (chimeric ABCD1) [2]) was ~4 µM.
